Legend:
[1] = test system: Rat glioma (RG2) cells; assay: LLLT combined with 14C PDT, Presto Blue cell kill, RG2 cells; type: cell-based; conditions: for 14C-mediated cell kill after LLLT: RG2, 100 nM 14C
Description: (§4) RG2 cells (15,000 cells) or human bladder cancer (T24) cells (10,000 cells) were seeded in complete DMEM in 96-well culture plates and incubated at 37° C., 5% CO2 overnight. The next day, the cells were washed once with PBS and the medium was replaced with complete DMEM without phenol red or sodium pyruvate. Cells were treated with either 660 nm, 905 nm or a combination of both wavelengths at the indicated fluence doses in J/cm^2. After 6 or 24 hours, the media was replaced with media containing the ruthenium-based PDC 14C (100 nM for RG2 cells and 200 nM for T24 cells) for 1 hour, then the PDC was washed away and the cells were treated with PDT using green laser light (wavelength: 530 nm, fluence 20 J/cm^2) using a 96-laser diode array light source (TLD3000, Theralase Inc. Toronto, ON, Canada), after which the plates were returned to the dark in the incubator overnight. Cell viability was measured by Presto Blue cell viability assay quantifying fluorescence at using a plate reader at excitation emissions of 560/600 nm. PDT-mediated cell kill was calculated by subtracting cell kill due to LLLT first and values were normalized to control cells that were kept in the dark and not treated with LLLT.
(§5) RG2 cells (7,500 cells) or human bladder cancer (T24) cells (5,000 cells) were seeded in complete DMEM in 96-well culture plates and incubated at 37° C., 5% CO2 overnight. The next day, the cells were washed once with PBS and the medium was replaced with complete DMEM without phenol red or sodium pyruvate, with or without 10 uM GCR antagonist mifepristone for an additional 24 hours. Cells were treated with either 660 nm, 905 nm or a combination of both wavelengths at the indicated energy doses in J/cm^2. After 6 or 24 hours, the media was replaced with media containing the ruthenium-based photodynamic compound 14C (100 nM for RG2 cells and 200 nM for T24 cells) for 3 hours, then the drug was washed away and the cells were treated with PDT using green laser (wavelength: 530 nm, fluence 20 J/cm^2) using a 96-laser diode array light source (TLD-3000, Theralase Inc. Toronto, ON, Canada), and the plates were returned to the dark in the incubator overnight. Cell viability was measured by Presto Blue cell viability assay quantifying fluorescence at using a plate reader at excitation emissions of 560/600 nm.

[2] = test system: human bladder cancer (T24) cells; assay: LLLT combined with 14C PDT, Presto Blue cell kill, T24 cells; type: cell-based; conditions: for 14C-mediated cell kill after LLLT: T24, 200 nM 14C
Description: as §4, §5

[3] = test system: CT26WT tumor cells; assay: LLLT and PDT in vivo hind leg tumor model; design: species or system Balb/c mice; conditions: LLLT 2.5-20 J/cm^2 daily for 5 days; injection on day 5; suboptimal red light PDT 90 J/cm^2 4 hours after injection
Description: CT26WT tumor cells were implanted in the hind leg of Balb/c mice to develop a hind leg tumor model. […] TLD-1433 (14C) was injected on day 5 of LLLT treatment and suboptimal red light PDT (90 J/cm^2) was performed 4 hours after injection. Tumor size and survival were determined to examine the effect of LLLT on potentiating the effect of 14C-mediated PDT and improving the survival curve.

[4] = test system: Rat glioma (RG2) cells; assay: LLLT combined with Cisplatin, Presto Blue cell kill, RG2 cells; type: cell-based; conditions: for Cisplatin-mediated cell kill after LLLT: RG2, 1 ug/ml
Description: (§1) After 6 or 24 hours, the cells were treated with Cisplatin (1 ug/ml for RG2 cells or 1.5 ug/ml for T24 cells), and the plates were returned to the incubator overnight. Cell viability was measured by Presto Blue cell viability assay quantifying fluorescence at using a plate reader at excitation emissions of 560/600 nm. Values were normalized to control cells that were kept in the dark and not treated with LLLT.
(§2) After 6 or 24 hours, the cells were treated with Cisplatin (1 ug/ml for RG2 cells or 1.5 ug/ml for T24 cells), and the plates were returned to the incubator overnight. Cell viability was measured by Presto Blue cell viability assay quantifying fluorescence at using a plate reader at excitation emissions of 560/600 nm. Values will be normalized to control cells that are kept in the dark and not treated with LLLT.
(§3) Cells were then treated with either: 1) the ruthenium-based PDC 14C followed by PDT using a green laser light source (FIGS. 24A-24D); 2) the antineoplastic drug Cisplatin (FIGS. 25A-25D). The plates were then returned to the incubator overnight. Cell viability was measured by Presto Blue cell viability assay quantifying fluorescence at using a plate reader at excitation emissions of 560/600 nm. Values were normalized to control cells that were […].

[5] = test system: human bladder cancer (T24) cells; assay: LLLT combined with Cisplatin, Presto Blue cell kill, T24 cells; type: cell-based; conditions: for Cisplatin-mediated cell kill after LLLT: T24, 1.5 ug/ml
Description: as §1, §2, §3

[6] = test system: RG2 cells; assay: Stem-like characteristics of cancer cells (qPCR of stem cell genes, proliferation rate) after LLLT; type: cell-based, rat; conditions: 24 hours pre-treatment
Description: Cells were then treated with 905 nm at fluence doses of 5 or 20 J/cm^2. Cells were incubated for 6 hours, then the cells were washed once with PBS and harvested by TRIzol reagent for RNA extraction (Invitrogen) per the manufacturer's protocol. 2 ug of RNA were used to prepare cDNA using the high-capacity cDNA reverse transcription kit (Thermofisher) and the cDNA was diluted 1:10. 2 μl of cDNA was used per PCR reaction using the SYBR green master mix and qPCR was run on the LightCycler 480 (Roche). Gene expression was normalized to the housekeeping gene HPRT, and values were normalized to control cells that were kept in the dark and not treated with LLLT. Relative analysis of stem cell associated transcription factor genes CD133, OCT4, NANOG, SOX2 and LIN28a, or proliferation promoting genes NESTIN, MSI1, MELK and ALDH1a1. […] Phase contrast images (4×) were taken every 4 hours using the Incucyte ZOOM system to calculate percent confluency overtime. […] Proliferation rate was calculated as the inverse of T (time when cells reach confluency halfway between original seeding density (15%) and final 100% confluency). Data were normalized to the corresponding dark control group (0 J/cm^2) for each drug expressed as 1 (not shown). […]

[7] = test system: RG2 cells; conditions: Mifepristone 10 uM, 24 hours
Description: (§6) RG2 cells (30,000 cells) or human bladder cancer (T24) cells (20,000 cells) are seeded in complete DMEM in 96-well Seahorse culture plates (Agilent technologies) and incubated at 37° C., 5% CO2. The cells are treated for 24 hours with the GCR agonist, dexamethasone, or the GCR antagonist, Mifepristone (10 uM). The cells are then washed once with PBS and the medium replaced with complete DMEM without phenol red or sodium pyruvate. Cells are treated with either 660 nm, 905 nm or a combination of both wavelengths at energy doses from 0.5 to 10 J/cm^2. Cells are incubated for 24 hours. The media is then replaced with XF media without sodium bicarbonate and the plate placed at 37° C. in XF prep station (0% CO2) for 1 hour. Basal ECAR and OCR levels are measured using XFe96 analyzer (Agilent technologies) per the manufacturer's protocol.

[8] = test system: human bladder cancer (T24) cells; conditions: Mifepristone 10 uM, 24 hours
Description: as §6

[9] = LLLT 905 nm PW 5 J/cm^2 or 660 nm CW 2.5 J/cm^2 before PDT 530 nm 20 J/cm^2
[10] = LLLT higher fluence values of 20 and 10 J/cm^2
[11] = 5 J/cm^2 for 905 nm PW and most conditions with 660 nm CW alone (Example 9A)
[12] = 905 nm PW or combined 905 nm PW and 660 nm CW at 20 J/cm^2 (Example 9A)
[13] = RG2, 10 uM pre-treatment, no LLLT
[14] = RG2, 10 uM, LLLT 905 nm 5 J/cm^2, 660 nm 2.5 J/cm^2 or combination 5 J/cm^2
[15] = T24, 10 uM pre-treatment, no LLLT
[16] = T24, 10 uM, LLLT 905 nm 5 J/cm^2, 660 nm 2.5 J/cm^2 or combination 5 J/cm^2

In the case of `Cc1ccnc(-c2cc(C)ccn2)c1.Cc1ccnc(-c2cc(C)ccn2)c1.[Cl-].[Cl-].[Ru+2].c1csc(-c2ccc(-c3ccc(-c4nc5c6cccnc6c6ncccc6c5[nH]4)s3)s2)c1` [14C], the “14C-mediated cell kill after LLLT” value [1, 9] is reported as “increased”, the “14C-mediated cell kill after LLLT” value [1, 10] is reported as “promoted cell survival” and the “14C-mediated cell kill after LLLT” value [2, 9] is reported as “increased”. For the same compound, the “14C-mediated cell kill after LLLT” value [2, 10] was “promoted cell survival” and the “survival of mice, LLLT plus PDT compared to PDT only” value [3] was “synergistically increased the survival”.
With `N.N.[Cl][Pt][Cl]` [Cisplatin] the “Cisplatin-mediated cell kill after LLLT” value [4, 11] was “promoted cell survival”, the “Cisplatin-mediated cell kill after LLLT” value [4, 12] was “increased” and the “Cisplatin effect after LLLT (without Mifepristone)” value ([4]; RG2, 905 nm 5 J/cm^2, 660 nm 2.5 J/cm^2 or combination 5 J/cm^2 (Example 19)) was “increased”. The “Cisplatin effective cell kill after LLLT (without Mifepristone)” value ([4]; RG2, higher doses 10-20 J/cm^2 (Example 19)) was “decreased”, the “Cisplatin-mediated cell kill after LLLT” value [5, 11] was “promoted cell survival” and the “Cisplatin-mediated cell kill after LLLT” value [5, 12] was “increased”. For the same compound, the “Cisplatin effect after LLLT (without Mifepristone)” value ([5]; T24, 905 nm 5 J/cm^2, 660 nm 2.5 J/cm^2 or combination 5 J/cm^2 (Example 19)) was “increased” and the “Cisplatin effective cell kill after LLLT (without Mifepristone)” value ([5]; T24, higher doses 10-20 J/cm^2 (Example 19)) was “decreased”.
With `CC#C[C@]1(O)CC[C@H]2[C@@H]3CCC4=CC(=O)CCC4=C3[C@@H](c3ccc(N(C)C)cc3)C[C@@]21C` [Mifepristone] the “effect of Mifepristone treatment on PDT cell kill” value [1, 13] was “did not have any significant effects”, the “cell kill by Mifepristone treatment alone” value ([1]; RG2, 10 uM, 24 hours) was “did not induce cell kill” and the “effect of Mifepristone pre-treatment on the synergistic effect of LLLT on 14C PDT” value [1, 14] was “significantly inhibited”. The “effect of Mifepristone treatment on PDT cell kill” value [2, 15] was “did not have any significant effects”, the “cell kill by Mifepristone treatment alone” value ([2]; T24, 10 uM, 24 hours) was “did not induce cell kill” and the “effect of Mifepristone pre-treatment on the synergistic effect of LLLT on 14C PDT” value [2, 16] was “significantly inhibited”. The “effect of Mifepristone treatment on Cisplatin cell kill” value [4, 13] was “did not have any significant effects”, the “cell kill by Mifepristone treatment alone” value ([4]; RG2, 10 uM, 24 hours (Example 19)) was “did not induce cell kill” and the “effect of Mifepristone pre-treatment on the synergistic effect of LLLT on Cisplatin” value [4, 14] was “significantly inhibited”. The “effect of Mifepristone treatment on Cisplatin cell kill” value [5, 15] was “did not have any significant effects”, the “cell kill by Mifepristone treatment alone” value ([5]; T24, 10 uM, 24 hours (Example 19)) was “did not induce cell kill” and the “effect of Mifepristone pre-treatment on the synergistic effect of LLLT on Cisplatin” value [5, 16] was “significantly inhibited”. For the same compound, the “effect of Mifepristone pre-treatment on positive effects of LLLT on stem-like characteristics” value [6] was “blocked”, the “effect on Warburg effect (glycolysis, mitochondrial respiration)” value [7] was “potentiates the Warburg effect” and the “effect on LLLT inhibition of the Warburg effect” value ([7]; then LLLT 0.5 to 10 J/cm^2) was “reverses the positive effect”. For the same compound, the “effect on Warburg effect (glycolysis, mitochondrial respiration)” value [8] was “potentiates the Warburg effect” and the “effect on LLLT inhibition of the Warburg effect” value ([8]; then LLLT 0.5 to 10 J/cm^2) was “reverses the positive effect”.

Reference: patent US20200094070A1, “METHOD AND APPARATUS FOR PHOTOACTIVATING NUCLEAR RECEPTORS” (THERALASE BIOTECH INC., priority 2017, published 2020)
